Biological target: unphosphorylated-BTK kinase domain (UP-BTK), GST-tagged human BTK (389-659aa) (Homo sapiens (Human), UniProt Q06187)
Assay: BTK kinase Lanthascreen binding assay
Settings: unphosphorylated-BTK kinase domain, 50 nM Tracer 236, 60 minutes, pIC50 = negative log of the IC50 in molar; for IC50: read-out: BTK_I_binding pIC50 (converted)
Outline: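 A fluorescent tracer is bound to unphosphorylated BTK; test compound is added to compete it off; the Lanthascreen signal is read and IC50 is fitted, then reported as its negative log in molar.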

Sequence of unphosphorylated-BTK kinase domain (UP-BTK), GST-tagged human BTK (389-659aa) (Q06187 389-659): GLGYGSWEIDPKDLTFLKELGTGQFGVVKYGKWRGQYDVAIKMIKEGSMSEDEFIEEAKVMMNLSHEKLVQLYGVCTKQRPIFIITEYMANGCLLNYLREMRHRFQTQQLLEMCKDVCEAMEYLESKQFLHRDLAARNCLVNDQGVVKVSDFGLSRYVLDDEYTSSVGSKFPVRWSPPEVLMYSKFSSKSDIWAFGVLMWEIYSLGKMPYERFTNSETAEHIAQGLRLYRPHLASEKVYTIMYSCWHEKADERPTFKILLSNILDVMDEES

Row | IC50 [µM] | BTK_I_binding pIC50 | SMILES
1 | 3.16 | – | CC(C)Oc1ccc(N2C(=O)Nc3c(C(=O)N[C@@H]4CCCNC4)sc4nccc2c34)cc1 [Example 405, (R)-5-(4-Isopropoxyphenyl)-4-oxo-N-(piperidin-3-yl)-4,5-dihydro-3H-1-thia-3,5,8-triazaacenaphthylene-2-carboxamide]
2 | – | 5.2 | CCC(=O)N1CCC[C@@H](NC(=O)c2sc3nccc4c3c2NC(=O)N4c2ccc(OC(C)C)cc2)C1 [Example 406, (R)-5-(4-Isopropoxyphenyl)-4-oxo-N-(1-propionylpiperidin-3-yl)-4,5-dihydro-3H-1-thia-3,5,8-triazaacenaphthylene-2-carboxamide]
3 | – | 5.1 | O=C(N[C@@H]1CCCNC1)c1sc2nccc3c2c1NC(=O)N3c1ccc(-c2cccs2)cc1 [Example 407, (R)-4-Oxo-N-(piperidin-3-yl)-5-(4-(thiophen-2-yl)phenyl)-4,5-dihydro-3H-1-thia-3,5,8-triazaacenaphthylene-2-carboxamide]
4 | – | 5.1 | C=CC(=O)N1CCC[C@@H](NC(=O)c2sc3nccc4c3c2NC(=O)N4Cc2ccc(Oc3ccccc3)cc2)C1 [Example 408, (R)—N-(1-Acryloylpiperidin-3-yl)-4-oxo-5-(4-phenoxybenzyl)-4,5-dihydro-3H-1-thia-3,5,8-triazaacenaphthylene-2-carboxamide]
5 | – | 5.0 | CN1CC[C@@H](NC(=O)c2sc3nccc4c3c2NC(=O)N4Cc2ccc(Oc3ccccc3)cc2)C1 [Example 409, (R)—N-(1-Methylpyrrolidin-3-yl)-4-oxo-5-(4-phenoxybenzyl)-4,5-dihydro-3H-1-thia-3,5,8-triazaacenaphthylene-2-carboxamide]
6 | – | 5.0 | O=C(N[C@@H]1CCCNC1)c1sc2nccc3c2c1NC(=O)N3c1ccc2sccc2c1 [Example 410, (R)-5-(Benzo[b]thiophen-5-yl)-4-oxo-N-(piperidin-3-yl)-4,5-dihydro-3H-1-thia-3,5,8-triazaacenaphthylene-2-carboxamide]
7 | – | <5 | CN1CCC[C@@H](NC(=O)c2sc3nccc4c3c2NC(=O)N4Cc2ccc(Oc3ccccc3)cc2)C1 [Example 411, (R)—N-(1-Methylpiperidin-3-yl)-4-oxo-5-(4-phenoxybenzyl)-4,5-dihydro-3H-1-thia-3,5,8-triazaacenaphthylene-2-carboxamide]
8 | – | <5 | O=C(N[C@@H]1CCCNC1)c1sc2nccc3c2c1NC(=O)N3Cc1ccc(Oc2ccccc2)cc1 [Example 412, (R)-4-Oxo-5-(4-phenoxybenzyl)-N-(piperidin-3-yl)-4,5-dihydro-3H-1-thia-3,5,8-triazaacenaphthylene-2-carboxamide]
9 | 2.51 | – | Cc1cc(OC(F)(F)F)ccc1N1C(=O)Nc2c(C(=O)N[C@@H]3CCCNC3)sc3nccc1c23 [Example 413, (R)-5-(2-Methyl-4-(trifluoromethoxy)phenyl)-4-oxo-N-(piperidin-3-yl)-4,5-dihydro-3H-1-thia-3,5,8-triazaacenaphthylene-2-carboxamide]
10 | – | 7.4 | C=CC(=O)N1CCC[C@@H](NC(=O)c2sc3nccc4c3c2NC(=O)N4c2ccc(OC(F)(F)F)cc2C)C1 [Example 414, (R)—N-(1-Acryloylpiperidin-3-yl)-5-(2-methyl-4-(trifluoromethoxy)phenyl)-4-oxo-4,5-dihydro-3H-1-thia-3,5,8-triazaacenaphthylene-2-carboxamide]
11 | 6.31 | – | O=C(N[C@@H]1CCCNC1)c1sc2nccc3c2c1NC(=O)N3c1ccc(OC(F)(F)F)cc1 [Example 415, (R)-4-Oxo-N-(piperidin-3-yl)-5-(4-(trifluoromethoxy)phenyl)-4,5-dihydro-3H-1-thia-3,5,8-triazaacenaphthylene-2-carboxamide]
12 | – | 6.7 | C=CC(=O)N1CCC[C@@H](NC(=O)c2sc3nccc4c3c2NC(=O)N4c2ccc(OC(F)(F)F)cc2)C1 [Example 416, (R)—N-(1-Acryloylpiperidin-3-yl)-4-oxo-5-(4-(trifluoromethoxy)phenyl)-4,5-dihydro-3H-1-thia-3,5,8-triazaacenaphthylene-2-carboxamide]
